Assay results published in PubChem BioAssay (NCI).
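Growth conditions: 96-well plates. Treatment: test compound, 48 hours, 5 concentrations. Analysis: linear interpolation between bracketing concentrations; unreached endpoints set to highest concentration. GI50: concentration for 50% inhibition of growth. Definition used: TGI = concentration required for complete inhibition of growth.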

Legend:
Assay in all cases: NCI-60 cell line screen, 48 h
[1] = test system: SNB-19 CNS
[2] = test system: T-47D breast
[3] = test system: UACC-257 melanoma
[4] = test system: MCF7 breast
[5] = test system: TK-10 renal
[6] = test system: BT-549 breast
[7] = test system: HCT-15 colon
[8] = test system: 786-0 renal
[9] = test system: SF-539 CNS
[10] = test system: A549 NSCLC

Compound	TGI [1] [µM]	TGI [2] [µM]	TGI [3] [µM]	TGI [4] [µM]	TGI [5] [µM]	TGI [6] [µM]	TGI [7] [µM]	TGI [8] [µM]	TGI [9] [µM]	TGI [10] [µM]	GI50 [1] [nM]	GI50 [2] [mM]	GI50 [3] [nM]	GI50 [5] [µM]	GI50 [6] [µM]	GI50 [9] [nM]
Cc1c(-c2ccccc2)c(C#N)c2nnn(-c3ccccc3)c(=O)n12	> 100	> 100	> 100	> 100	> 100	> 100	> 100	> 100	> 100	> 100						
Cc1c(CNc2ccc(Cl)c(C(=O)NC(CC(=O)O)C(=O)O)c2)ccc2nc(N)nc(N)c12 (stereo unspecified)	> 1000	> 1000	> 1000	> 1000	> 1000	> 1000	> 1000	> 1000	> 1000	> 1000	382	> 1	2970	363	666	446
COc1ccc(-c2oc3ccc(C)cc3c(=O)c2O)cc1	> 100	> 100	> 100	> 100	> 100	> 100	> 100	> 100	> 100	> 100						
NNC(=O)CC(=O)Nc1ccc(Cl)cc1	> 100	> 100	> 100	> 100	> 100	> 100	> 100	> 100	> 100	> 100						
COC(c1ccsc1)C(C#N)(C#N)N=Cc1ccsc1 (stereo unspecified)	55.3	67.7	29.6	15.6	36.2	38.7	25.9	37.9	30.4	> 100						
O=C1COC(c2ccccc2O)=NN1CCCN1CCCC1	> 100	> 100	> 100	> 100	> 100	> 100	> 100	> 100	> 100	> 100						
CC(C)OC(=O)c1ccc(NCC2=CC(=O)C=CC2=O)cc1Cl	44.2	7.85	33.9	> 60.1	30	9.92	18.6	> 48.3	37.5	> 100						
CCNc1nc(N)c(C(=O)c2ccc(Cl)cc2)s1	58.8	> 100	> 100	> 100	54.4	> 100	> 100	> 100	> 100	70.2						
